From ChEMBL document CHEMBL3885881, “DrugMatrix”

Organism: Rattus norvegicus
Assay: DrugMatrix - Regimen: Daily Repeat
Type: toxicity, organism-based, Sprague-Dawley
Design: regimen Daily Repeat, gender Male, age 6-8 weeks
Settings: in vivo, po, route oral GAVAGE, vehicle .5 % CMC; for BASOPHIL / EOSINOPHIL / ERYTHROCYTE COUNT / HEMATOCRIT / HEMOGLOBIN / LEUKOCYTE COUNT / LYMPHOCYTE / MEAN CORPUSCULAR HEMOGLOBIN / MEAN CORPUSCULAR HEMOGLOBIN CONCENTRATION / MEAN CORPUSCULAR VOLUME / MONOCYTE / NEUTROPHIL / PLATELET COUNT: tissue Blood; for ALANINE AMINOTRANSFERASE / ALBUMIN / ALKALINE PHOSPHATASE / ASPARTATE AMINOTRANSFERASE / BLOOD UREA NITROGEN / CHLORIDE / CHOLESTEROL / CREATINE PHOSPHOKINASE / CREATININE / GLUCOSE / PHOSPHORUS / POTASSIUM / SODIUM / TOTAL BILIRUBIN / TOTAL PROTEIN: tissue Plasma
[1] = 0 mg/kg, 72 h, dose level Control, time 3 day
[2] = 0 mg/kg, 120 h, dose level Control, time 5 day
[3] = 10 mg/kg, 72 h, dose level Low, time 3 day

## COc1ccc(Cl)cc1C(=O)NCCc1ccc(S(=O)(=O)NC(=O)NC2CCCCC2)cc1 [GLYBURIDE]
[1]
  BASOPHIL: 0%
  EOSINOPHIL: 0%
  ERYTHROCYTE COUNT: 6.34 x10E6/uL
  HEMATOCRIT: 37.62%
  HEMOGLOBIN: 14.82 G/DL
  LEUKOCYTE COUNT: 11.18 x10E3/uL
  LYMPHOCYTE: 87.5%
  MEAN CORPUSCULAR HEMOGLOBIN: 23.48 pg
  MEAN CORPUSCULAR HEMOGLOBIN CONCENTRATION: 39.5 G/DL
  MEAN CORPUSCULAR VOLUME: 59.45 fL
  MONOCYTE: 1.67%
  NEUTROPHIL: 10.83%
  PLATELET COUNT: 1074.83 x10E3/uL
  ALANINE AMINOTRANSFERASE: 36.5 u/L
  ALBUMIN: 3.9 G/DL
  ALKALINE PHOSPHATASE: 370.17 u/L
  ASPARTATE AMINOTRANSFERASE: 63.17 u/L
  BLOOD UREA NITROGEN: 16.83 mg/dL
  CHLORIDE: 99.33 MEQ/L
  CHOLESTEROL: 64.33 mg/dL
  CREATINE PHOSPHOKINASE: 127 u/L
  CREATININE: 0.55 mg/dL
  GLUCOSE: 173.5 mg/dL
  PHOSPHORUS: 10.08 mg/dL
  POTASSIUM: 6.23 MEQ/L
  SODIUM: 143.5 MEQ/L
  TOTAL BILIRUBIN: 0.52 mg/dL
  TOTAL PROTEIN: 6.35 G/DL
[2]
  BASOPHIL: 0%
  EOSINOPHIL: 0.17%
  ERYTHROCYTE COUNT: 6.12 x10E6/uL
  HEMATOCRIT: 37.08%
  HEMOGLOBIN: 14.82 G/DL
  LEUKOCYTE COUNT: 11.87 x10E3/uL
  LYMPHOCYTE: 83.33%
  MEAN CORPUSCULAR HEMOGLOBIN: 24.25 pg
  MEAN CORPUSCULAR HEMOGLOBIN CONCENTRATION: 39.97 G/DL
  MEAN CORPUSCULAR VOLUME: 60.65 fL
  MONOCYTE: 1.5%
  NEUTROPHIL: 15%
  PLATELET COUNT: 1042.83 x10E3/uL
  ALANINE AMINOTRANSFERASE: 46 u/L
  ALBUMIN: 3.82 G/DL
  ALKALINE PHOSPHATASE: 369.5 u/L
  ASPARTATE AMINOTRANSFERASE: 65 u/L
  BLOOD UREA NITROGEN: 16.33 mg/dL
  CHLORIDE: 100.67 MEQ/L
  CHOLESTEROL: 57.17 mg/dL
  CREATINE PHOSPHOKINASE: 130 u/L
  CREATININE: 0.53 mg/dL
  GLUCOSE: 163.33 mg/dL
  PHOSPHORUS: 9.53 mg/dL
  POTASSIUM: 6.27 MEQ/L
  SODIUM: 144.83 MEQ/L
  TOTAL BILIRUBIN: 0.55 mg/dL
  TOTAL PROTEIN: 6.32 G/DL
[3]
  BASOPHIL: 0%
  EOSINOPHIL: 0.33%
  ERYTHROCYTE COUNT: 6.67 x10E6/uL
  HEMATOCRIT: 40.2%
  HEMOGLOBIN: 15.57 G/DL
  LEUKOCYTE COUNT: 12.13 x10E3/uL
  LYMPHOCYTE: 90.33%
  MEAN CORPUSCULAR HEMOGLOBIN: 23.33 pg
  MEAN CORPUSCULAR HEMOGLOBIN CONCENTRATION: 38.7 G/DL
  MEAN CORPUSCULAR VOLUME: 60.3 fL
  MONOCYTE: 1.33%
  NEUTROPHIL: 8%
  PLATELET COUNT: 1148 x10E3/uL
  ALANINE AMINOTRANSFERASE: 30.33 u/L
  ALBUMIN: 4.1 G/DL
  ALKALINE PHOSPHATASE: 317.67 u/L
  ASPARTATE AMINOTRANSFERASE: 61 u/L
  BLOOD UREA NITROGEN: 15 mg/dL
  CHLORIDE: 99.33 MEQ/L
  CHOLESTEROL: 66.33 mg/dL
  CREATINE PHOSPHOKINASE: 164.67 u/L
  CREATININE: 0.5 mg/dL
  GLUCOSE: 160.33 mg/dL
  PHOSPHORUS: 11.87 mg/dL
  POTASSIUM: 6.23 MEQ/L
  SODIUM: 144.67 MEQ/L
  TOTAL BILIRUBIN: 0.3 mg/dL
  TOTAL PROTEIN: 6.77 G/DL
